Assay results taken from paper PMC8955377, “Greener Synthesis of Antiproliferative Furoxans via Multicomponent Reactions” (Molecules, 2022).
Read-outs that look alike come from different tables or passages of the source.

Assays:
T24 cells [1] = assay: Antiproliferative activity, sulforhodamine B assay, T24 bladder cancer cells; assay type: cell-based, human; conditions: SRB, mean (±SEM)
Experimental: (§1) In vitro antiproliferative activity of the compounds was determined in cells derived from bladder cancer (T24) and prostate cancer (LNCaP). The cells were incubated in the presence of the compounds for 48 h. The antiproliferative activity was determined using the sulforhodamine B assay. The results were expressed as GI50, which is the drug concentration resulting in a 50% reduction of cellular net growth when compared with the values of untreated control cells. The standard anticancer drug cisplatin was used as a positive control, and furoxan 3 and 11a were also included as ⋅NO donor reference compounds. The results are summarized in Table 2 for the Ugi product 7a, Ugi-Fx (8a) and 8b–g Ugi-furoxan derivatives, and GBB product 10 and 12a–e GBB-furoxan derivatives.
(§2) The T24 cells were grown in McCoy’s 5A (Biological Industries) supplemented with 10% FBS (Capricorn Scientific). The cells were passaged twice per week, and the culture medium was changed with the same frequency. The LNCaP cells were maintained in RPMI media (Biological Industries) supplemented with 10% FBS (Capricorn Scientific) and 10% of its own conditioned medium (complete media). The cells were passaged once per week, and the medium was changed with the same frequency. The HaCaT cells (immortalized human keratinocytes) were cultured in Dulbecco’s modified Eagle medium (Biological Industries) supplemented with 10% FBS (Capricorn Scientific). The cells were passaged twice per week, and the medium was changed with the same frequency. The cell cultures were maintained under a humidified 5% CO2 atmosphere at 37 °C.
(§3) For viability assays, cells were treated with a 0.25% Trypsin–0.05% EDTA solution and plated in 96-well plates in complete medium the day before the experiment. The cells were seeded in a 96-well plate at densities of 8 × 10^3 cells per well for T24 cells, 12.5 × 10^3 cells per well for LNCaP cells, and 10 × 10^3 cells per well for HaCaT cells. The cultures were allowed to attach for 24 h in a humidified 5% CO2 atmosphere at 37 °C. Then, the cells were treated with increasing concentrations of the compounds (0.4–100.0 µM) prepared in complete medium using stock solutions in DMSO and were kept for 48 h in a CO2 incubator. Wells with only media or 0.5% DMSO were added as controls. The antiproliferative activity of the compounds was assayed using the SRB method in at least three independent experiments.

HaCaT cells [2] = assay: Cytotoxicity in non-cancer keratinocytes, sulforhodamine B assay; assay type: cell-based; conditions: HaCaT human keratinocytes, 0.4–100 µM, SRB; mean (±SEM)
Experimental: As a first approximation of the safety profile of the synthesized compounds and to determine the cytotoxic selectivity against cancer cells, the antiproliferative activity in non-cancer cells was studied. This evaluation was carried out in human keratinocyte HaCaT cells with 0.4–100 µM of the test compounds using the sulforhodamine B assay. The selectivity index (SI) was calculated for these compounds by dividing the GI50 for HaCaT by the GI50 for each cancer cell line. […] The derivatives Ugi-Fx (8a) and 12e stand out, with selectivity indices of 14.5 and 10.8, respectively. […] Concerning the LNCaP prostate cancer cell line, as for the reference drug, no selectivity was observed. […] Therefore, this new GBB-furoxan derivative can be a starting point in the design of new structures with improved selectivity.
as §2, §3

LNCaP cells = assay: Antiproliferative activity, sulforhodamine B assay, LNCaP prostate cancer cells; assay type: cell-based, human; conditions: 48 h, SRB, mean (±SEM)
Experimental: as §1, §2, §3

HaCaT cells [3] = tested on: HaCaT cells; set-up: method as in PMID 30489292; conditions: HaCaT human keratinocytes; cited from earlier work
A549 (Lung) = tested on: A549 (Lung); set-up: method as in PMID 31356736; conditions: cited from earlier work
SW1573 (Lung) = tested on: SW1573 (Lung); set-up: method as in PMID 31356736; conditions: cited from earlier work
HBL-100 (Breast) = tested on: HBL-100 (Breast); set-up: method as in PMID 31356736; conditions: cited from earlier work
T-47D (Breast) = tested on: T-47D (Breast); set-up: method as in PMID 31356736; conditions: cited from earlier work
HeLa (Cervix) = tested on: HeLa (Cervix); set-up: method as in PMID 31356736; conditions: cited from earlier work
WiDr (Colon) = tested on: WiDr (Colon); set-up: method as in PMID 31356736; conditions: cited from earlier work
T24 cells [4] = assay: Antiproliferative activity with hemoglobin (NO scavenger), SRB assay; assay type: cell-based, human; conditions: Hb 0 or 50 µM 1 h pretreatment, compounds 10 µM, 48 h, Figure 4
Experimental: In this context, we next decided to study the effect of ·NO on their antiproliferative activity against T24 cells after incubation with an ·NO scavenger (Hb, hemoglobin). For this purpose, T24 cells were pretreated for 1 h with 0 or 50 µM of Hb and then the ·NO-donor compounds were added at 10 µM for 48 h. […] However, while for some compounds, such as 8d, ·NO release seems to be crucial for the antiproliferative activity, for others, such as Ugi-Fx (8a), other mechanisms would account for its anticancer effect. It is well-known that the action of 3-phenylsulfonylfuroxan derivatives is connected to ⋅NO release due to their interaction with free intracellular thiols or thiol groups of proteins. However, this action may also involve a covalent bond to thiol biomolecules with the concomitant displacement of the phenylsulfonyl group, leading to a cytotoxic adduct accumulation in the cell milieu. […] Further studies to elucidate the possible mechanisms of action involved will be performed.
To investigate the contribution of ⋅NO to the antiproliferative activity of the studied compounds, we tested their effect on T24 bladder cancer cell growth in the absence and presence of Hb. Cells were seeded into a 96-well plate at 8 × 10^3 cells per well and were allowed to attach for 24 h. […] Then, the antiproliferative activity was assessed by the SRB assay in at least three independent experiments. […]

Structure (SMILES) | GI50 (T24 cells [1]; Homo sapiens, T-24, 48 h) [µM] | GI50 (HaCaT cells [2]) [µM] | GI50 (LNCaP cells; Homo sapiens) [µM] | further results
Cc1ccc(N(C(=O)c2ccccc2)C(C(=O)NC(C)(C)C)c2cccc(Oc3no[n+]([O-])c3S(=O)(=O)c3ccccc3)c2)cc1 (stereo not drawn) [8g, N-(1-(tert-butylaminocarbonyl)-1-3-[3-(phenylsulfonyl)-[1,2,5]oxadiazol-4-yl N2-oxide]oxyphenylmethyl)-N-(4-methylphenyl)-phenylcarboxamide] | 1.7 | 4.99 | 36.7 | –
CC(C)(C)Nc1c(-c2cccc(Oc3no[n+]([O-])c3S(=O)(=O)c3ccccc3)c2)nc2ccccn12 [12a, 4-(3-(3-(tert-butylamino)imidazo[1,2-a]pyridin-2-yl)phenoxy)-3-(phenylsulfonyl)-1,2,5-oxadiazole 2-oxide] | 1.76 | 7.44 | 24.7 | –
CC(C)(C)Nc1c(-c2ccc(Oc3no[n+]([O-])c3S(=O)(=O)c3ccccc3)cc2)nc2ccccn12 [12c, 4-(4-(3-(tert-butylamino)imidazo[1,2-a]pyridin-2-yl)phenoxy)-3-(phenylsulfonyl)-1,2,5-oxadiazole 2-oxide] | 2.99 | 5.22 | 24.2 | –
O=S(=O)(c1ccccc1)c1no[n+]([O-])c1S(=O)(=O)c1ccccc1 [compound 2, 3,4-bis(phenylsulfonyl)furoxan] | – | – | – | GI50 (HaCaT cells [3]): 1.47 µM
CCCCN(C(=O)c1cccc(Oc2no[n+]([O-])c2S(=O)(=O)c2ccccc2)c1)C(C(=O)NC(C)(C)C)c1ccccc1 (stereo not drawn) [8e, N-(1-(tert-butylaminocarbonyl)-1-phenylmethyl)-N-(butyl)-3-[3-(phenylsulfonyl)-[1,2,5]oxadiazol-4-yl N2-oxide]oxyphenylcarboxamide] | 1.53 | 11.8 | 21.8 | –
Cc1ccc(N(C(=O)c2ccc(Oc3no[n+]([O-])c3S(=O)(=O)c3ccccc3)cc2)C(C(=O)NC(C)(C)C)c2ccccc2)cc1 (stereo not drawn) [8c, N-[1-(tert-butylaminocarbonyl)-1-phenylmethyl]-N-(4-methylphenyl)-4-[3-(phenylsulfonyl)-[1,2,5]oxadiazol-4-yl N2-oxide]oxyphenylcarboxamide] | 2.18 | 4.62 | 18.8 | –
CC(C)(C)Nc1c(-c2cccc(Oc3no[n+]([O-])c3S(=O)(=O)c3ccccc3)c2)nc2sccn12 [12e, 4-(3-(5-(tert-butylamino)imidazo[2,1-b]thiazol-6-yl)phenoxy)-3-(phenylsulfonyl)-1,2,5-oxadiazole 2-oxide] | 0.83 | 9.01 | 16.5 | GI50 T24 (T24 cells [1]; 48 h): sub-micromolar range
Cc1ccc(N(C(=O)c2ccccc2Oc2no[n+]([O-])c2S(=O)(=O)c2ccccc2)C(C(=O)NC(C)(C)C)c2ccccc2)cc1 (stereo not drawn) [8b, N-[1-(tert-butylaminocarbonyl)-1-phenylmethyl]-N-(4-methylphenyl)-2-[3-(phenylsulfonyl)-[1,2,5]oxadiazol-4-yl N2-oxide]oxyphenylcarboxamide] | 1.83 | 3.78 | 13.3 | –
O=C(O)c1cccc(Oc2no[n+]([O-])c2S(=O)(=O)c2ccccc2)c1 [compound 3, reference compound] | 8.6 | 14.4 | 32.5 | –
Cc1ccc(N(C(=O)c2cccc(O)c2)C(C(=O)NC(C)(C)C)c2ccccc2)cc1 (stereo not drawn) [7a, N-(1-(tert-butylaminocarbonyl)-1-phenylmethyl)-N-(4-methylphenyl)-3-hydroxyphenyl carboxamide] | > 100 | – | > 100 | –
CC(C)(C)Nc1c(-c2cccc(O)c2)nc2ccccn12 [compound 10, N-tert-Butyl-2-(3-hydroxyphenyl)imidazo[1,2-a]pyridin-3-amine] | > 100 | – | > 100 | –
Cc1ccc(N(C(=O)c2cccc(Oc3no[n+]([O-])c3S(=O)(=O)c3ccccc3)c2)C(C(=O)NC(C)(C)C)c2ccccc2)cc1 (stereo not drawn) [Ugi-Fx (8a), N-[1-(tert-butylaminocarbonyl)-1-phenylmethyl]-N-(4-methylphenyl)-3-[3-(phenylsulfonyl)-[1,2,5]oxadiazol-4-yl N2-oxide]oxyphenylcarboxamide] | 0.73 | 10.6 | 20.2 | GI50 (A549 (Lung)): 2.3 µM; GI50 (SW1573 (Lung)): 0.021 µM; GI50 T24 (T24 cells [1]; 48 h): sub-micromolar range; GI50 (HBL-100 (Breast)): 0.23 µM; GI50 (T-47D (Breast)): 1.9 µM; GI50 (HeLa (Cervix)): 1.8 µM; GI50 (WiDr (Colon)): 3 µM; Effect of hemoglobin on antiproliferative effect (cell growth inhibition) (T24 cells [4]): high antiproliferative activity even in the presence of a ⋅NO scavenger
Cc1ccc(N(CC(=O)NC(C)(C)C)C(=O)c2cccc(Oc3no[n+]([O-])c3S(=O)(=O)c3ccccc3)c2)cc1 [8d, N-(1-(tert-butylaminocarbonyl)methyl)-N-(4-methylphenyl)-3-[3-(phenylsulfonyl)-[1,2,5]oxadiazol-4-yl N2-oxide]oxy phenylcarboxamide] | 2.1 | 9.99 | 21.8 | –
CC(C)(C)Nc1c(-c2cccc(Oc3no[n+]([O-])c3S(=O)(=O)c3ccccc3)c2)nc2cnccn12 [12d, 4-(3-(3-(tert-butylamino)imidazo[1,2-a]pyrazin-2-yl)phenoxy)-3-(phenylsulfonyl)-1,2,5-oxadiazole 2-oxide] | 2.72 | 9.84 | 8.13 | –
N.N.[Cl][Pt][Cl] [Cisplatin, cisplatin, reference compound] | – | 2.51 | – | GI50 (T24 cells [1]; 48 h): 3.28 µM; GI50 (LNCaP cells): 20.3 µM
O=Cc1cccc(Oc2no[n+]([O-])c2S(=O)(=O)c2ccccc2)c1 [11a, reference compound] | 7.08 | 7.83 | 24.5 | –
CCCCN(CC(=O)NC(C)(C)C)C(=O)c1cccc(Oc2no[n+]([O-])c2S(=O)(=O)c2ccccc2)c1 [8f, N-(1-(tert-butylaminocarbonyl)methyl)-N-(butyl)-3-[3-(phenylsulfonyl)-[1,2,5]oxadiazol-4-yl N2-oxide]oxyphenylcarboxamide] | 2.86 | 11.8 | 29.9 | –
CC(C)(C)Nc1c(-c2ccccc2Oc2no[n+]([O-])c2S(=O)(=O)c2ccccc2)nc2ccccn12 [12b, 4-(2-(3-(tert-butylamino)imidazo[1,2-a]pyridin-2-yl)phenoxy)-3-(phenylsulfonyl)-1,2,5-oxadiazole 2-oxide] | 0.85 | 3.11 | 7.7 | GI50 T24 (T24 cells [1]; 48 h): sub-micromolar range
